In ChEMBL document CHEMBL4396887, “Five-Membered N-Heterocyclic Scaffolds as Novel Amino Bioisosteres at γ-Aminobutyric Acid (GABA) Type A Receptors and GABA Transporters” (J Med Chem, 2019):

Key:
[1] = target: T1, GABA-A receptor; alpha-1/beta-2/gamma-2 (Homo sapiens, UniProt P14867+P18507+P47870); test: Agonist activity at recombinant human GABA-A alpha1beta2gamma2S receptor transiently expressed in human tsA201 cells incubated for 30 mins and measured up to 90 secs by FMP dye based FLIPR membrane potential blue assay; type: cell-based
T1 sequence (P14867 whole entry): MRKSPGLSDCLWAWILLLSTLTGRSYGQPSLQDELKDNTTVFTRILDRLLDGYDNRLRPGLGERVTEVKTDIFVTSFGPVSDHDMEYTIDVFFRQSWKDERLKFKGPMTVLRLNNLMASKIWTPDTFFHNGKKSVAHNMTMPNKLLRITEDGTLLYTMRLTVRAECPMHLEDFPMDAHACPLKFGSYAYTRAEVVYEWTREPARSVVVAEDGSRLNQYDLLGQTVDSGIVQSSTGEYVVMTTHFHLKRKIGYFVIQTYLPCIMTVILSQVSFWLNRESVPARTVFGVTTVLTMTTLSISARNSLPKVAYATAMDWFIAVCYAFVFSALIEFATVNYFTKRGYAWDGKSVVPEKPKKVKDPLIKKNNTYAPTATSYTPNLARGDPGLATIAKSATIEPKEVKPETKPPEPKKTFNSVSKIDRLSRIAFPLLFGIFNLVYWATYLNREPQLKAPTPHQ
T1 sequence (P47870 whole entry): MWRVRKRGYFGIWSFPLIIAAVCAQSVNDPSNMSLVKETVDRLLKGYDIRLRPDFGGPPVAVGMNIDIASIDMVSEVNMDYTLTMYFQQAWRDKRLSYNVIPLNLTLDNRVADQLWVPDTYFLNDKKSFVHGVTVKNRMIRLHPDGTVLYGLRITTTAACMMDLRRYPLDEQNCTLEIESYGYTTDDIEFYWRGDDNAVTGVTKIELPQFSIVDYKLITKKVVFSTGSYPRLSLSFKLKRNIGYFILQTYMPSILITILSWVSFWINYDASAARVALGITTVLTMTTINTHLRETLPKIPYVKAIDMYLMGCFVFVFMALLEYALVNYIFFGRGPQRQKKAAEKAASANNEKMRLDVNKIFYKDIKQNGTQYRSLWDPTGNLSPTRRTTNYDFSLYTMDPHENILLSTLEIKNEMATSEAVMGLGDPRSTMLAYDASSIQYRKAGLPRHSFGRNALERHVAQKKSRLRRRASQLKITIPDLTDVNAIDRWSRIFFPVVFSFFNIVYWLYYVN
T1 sequence (P18507 whole entry): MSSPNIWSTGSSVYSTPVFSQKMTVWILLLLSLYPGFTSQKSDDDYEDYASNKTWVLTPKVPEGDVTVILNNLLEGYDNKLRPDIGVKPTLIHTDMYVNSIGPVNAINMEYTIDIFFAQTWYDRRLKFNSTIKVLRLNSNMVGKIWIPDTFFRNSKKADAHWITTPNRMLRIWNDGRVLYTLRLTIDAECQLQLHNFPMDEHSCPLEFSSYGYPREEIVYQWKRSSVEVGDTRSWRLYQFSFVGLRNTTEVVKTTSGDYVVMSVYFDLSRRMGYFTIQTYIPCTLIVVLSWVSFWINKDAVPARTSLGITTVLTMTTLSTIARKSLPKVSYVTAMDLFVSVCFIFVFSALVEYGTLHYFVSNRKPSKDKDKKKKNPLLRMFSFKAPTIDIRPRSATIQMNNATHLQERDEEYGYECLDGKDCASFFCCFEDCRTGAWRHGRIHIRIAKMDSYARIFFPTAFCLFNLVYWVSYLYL

[2] = target: T2, Gamma-aminobutyric acid receptor subunit alpha-5/beta-2/gamma-2 (Homo sapiens, UniProt P18507+P31644+P47870); test: Agonist activity at recombinant human GABA-A alpha5beta2gamma2S receptor transiently expressed in human tsA201 cells incubated for 30 mins and measured up to 90 secs by FMP dye based FLIPR membrane potential blue assay; type: cell-based
T2 sequence (P47870 whole entry): T1 sequence (P47870 whole entry)
T2 sequence (P18507 whole entry): T1 sequence (P18507 whole entry)
T2 sequence (P31644 whole entry): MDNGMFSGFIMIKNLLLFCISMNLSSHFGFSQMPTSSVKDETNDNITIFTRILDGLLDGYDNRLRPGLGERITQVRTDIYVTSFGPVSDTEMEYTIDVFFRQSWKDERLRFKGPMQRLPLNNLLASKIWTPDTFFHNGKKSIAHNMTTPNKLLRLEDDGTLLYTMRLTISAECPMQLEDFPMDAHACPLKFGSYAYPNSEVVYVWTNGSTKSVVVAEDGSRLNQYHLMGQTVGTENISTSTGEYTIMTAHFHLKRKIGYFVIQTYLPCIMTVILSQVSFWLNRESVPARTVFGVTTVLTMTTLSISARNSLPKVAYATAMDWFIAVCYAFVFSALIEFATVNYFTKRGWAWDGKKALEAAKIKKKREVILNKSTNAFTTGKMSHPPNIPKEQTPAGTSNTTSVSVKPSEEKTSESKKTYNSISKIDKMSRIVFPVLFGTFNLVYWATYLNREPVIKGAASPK

[3] = target: GABA-A receptor; anion channel; test: Displacement of [3H]muscimol from GABA(A) receptor in Sprague-Dawley rat cortical synaptic membranes by liquid scintillation counting
[4] = target: GABA-A receptor; alpha-1/beta-2/gamma-2 (Homo sapiens) (UniProt P14867+P47870+P18507); test: Agonist activity at recombinant human GABA-A alpha1beta2gamma2S receptor transiently expressed in human tsA201 cells assessed as GABA-induced maximum response incubated for 30 mins and measured up to 90 secs by FMP dye based FLIPR membrane potential blue assay relative to GABA; type: cell-based
Homo sapiens = organism: Homo sapiens; test: Agonist activity at recombinant human GABA-A alpha3beta2gamma2S receptor transiently expressed in human tsA201 cells assessed as GABA-induced maximum response incubated for 30 mins and measured up to 90 secs by FMP dye based FLIPR membrane potential blue assay relative to GABA; type: cell-based
[5] = target: T3, Gamma-aminobutyric acid receptor subunit rho-1 (Homo sapiens, UniProt P24046); test: Agonist activity at recombinant human GABA-A rho-1 receptor transiently expressed in human tsA201 cells incubated for 30 mins and measured up to 90 secs by FMP dye based FLIPR membrane potential blue assay; type: cell-based; conditions: read-out: EC50
[6] = target: T3, Gamma-aminobutyric acid receptor subunit rho-1; test: Agonist activity at recombinant human GABA-A rho-1 receptor transiently expressed in human tsA201 cells assessed as GABA-induced maximum response incubated for 30 mins and measured up to 90 secs by FMP dye based FLIPR membrane potential blue assay relative to GABA; type: cell-based
[7] = target: Gamma-aminobutyric acid receptor subunit alpha-4/beta-2/gamma-2 (Homo sapiens, UniProt P47870+P18507+P48169); test: Agonist activity at recombinant human GABA-A alpha4beta2gamma2S receptor transiently expressed in human tsA201 cells assessed as GABA-induced maximum response incubated for 30 mins and measured up to 90 secs by FMP dye based FLIPR membrane potential blue assay relative to GABA; type: cell-based
[8] = target: Gamma-aminobutyric acid receptor subunit alpha-5/beta-2/gamma-2 (Homo sapiens) (UniProt P47870+P18507+P31644); test: Agonist activity at recombinant human GABA-A alpha5beta2gamma2S receptor transiently expressed in human tsA201 cells assessed as GABA-induced maximum response incubated for 30 mins and measured up to 90 secs by FMP dye based FLIPR membrane potential blue assay relative to GABA; type: cell-based
cells = type: cell-based; conditions: Homo sapiens, tsA201, 0.5 h
[9] = target: Gamma-aminobutyric acid receptor subunit alpha-4/beta-2/gamma-2 (Homo sapiens, UniProt P18507+P47870+P48169); test: Agonist activity at recombinant human GABA-A alpha4beta2gamma2S receptor transiently expressed in human tsA201 cells incubated for 30 mins and measured up to 90 secs by FMP dye based FLIPR membrane potential blue assay; type: cell-based
Sequence of Gamma-aminobutyric acid receptor subunit alpha-4/beta-2/gamma-2 (Homo sapiens, UniProt P18507+P47870+P48169) (P48169 whole entry, one chain of several): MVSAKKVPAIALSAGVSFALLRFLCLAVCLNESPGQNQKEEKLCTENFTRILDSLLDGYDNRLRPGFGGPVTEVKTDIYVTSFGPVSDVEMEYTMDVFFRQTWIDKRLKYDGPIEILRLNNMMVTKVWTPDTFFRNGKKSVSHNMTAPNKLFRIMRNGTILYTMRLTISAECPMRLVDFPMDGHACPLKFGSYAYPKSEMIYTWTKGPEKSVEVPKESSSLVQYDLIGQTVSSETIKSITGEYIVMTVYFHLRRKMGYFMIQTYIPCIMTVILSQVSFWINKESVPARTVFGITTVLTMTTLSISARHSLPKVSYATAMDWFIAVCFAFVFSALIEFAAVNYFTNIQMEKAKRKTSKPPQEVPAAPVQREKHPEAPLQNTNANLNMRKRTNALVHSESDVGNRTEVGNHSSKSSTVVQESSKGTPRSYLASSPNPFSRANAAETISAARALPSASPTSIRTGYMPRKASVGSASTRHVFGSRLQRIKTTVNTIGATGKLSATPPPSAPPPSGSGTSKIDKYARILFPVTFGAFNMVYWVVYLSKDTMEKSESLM

T3 sequence (P24046 whole entry): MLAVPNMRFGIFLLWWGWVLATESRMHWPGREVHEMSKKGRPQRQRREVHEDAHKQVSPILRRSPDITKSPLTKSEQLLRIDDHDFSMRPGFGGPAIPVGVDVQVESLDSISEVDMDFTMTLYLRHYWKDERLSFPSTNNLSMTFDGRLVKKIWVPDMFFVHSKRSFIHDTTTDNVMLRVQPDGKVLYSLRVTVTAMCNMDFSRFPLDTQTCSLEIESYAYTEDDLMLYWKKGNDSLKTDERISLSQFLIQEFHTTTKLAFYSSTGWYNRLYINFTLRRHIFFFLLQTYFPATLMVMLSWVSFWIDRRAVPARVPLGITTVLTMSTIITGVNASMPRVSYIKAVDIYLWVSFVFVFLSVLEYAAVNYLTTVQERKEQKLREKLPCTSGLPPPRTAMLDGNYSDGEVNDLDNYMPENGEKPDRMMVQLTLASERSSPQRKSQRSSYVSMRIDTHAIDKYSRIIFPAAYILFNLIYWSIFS

| Structure (SMILES) | EC50 [1] [µM] | EC50 [2] [µM] | Ki [3] [µM] | Rmax [4] [%] | Rmax (Homo sapiens) [%] | EC50 [5] [µM] | Rmax [6] [%] | Rmax [7] [%] | Rmax [8] [%] | EC50 (cells; read-out: EC50) [µM] | EC50 (cells; read-out: pEC50 (converted)) [µM] | EC50 ([9]; read-out: EC50) [µM] | EC50 ([9]; read-out: pEC50 (converted)) [µM] |
| --- | --- | --- | --- | --- | --- | --- | --- | --- | --- | --- | --- | --- | --- |
| NC1=N[C@@H](CC(=O)O)CS1 | 12 | 0.56 | 0.36 | 65 | 102 | 3.7 | 34 | 53 | 103 | 2.4 | 2.34 | 8.6 | – |
| NC1=N[C@H](CC(=O)O)CS1 | 1.5 | 0.12 | 0.059 | 97 | 98 | 5.4 | 75 | 105 | 104 | 0.37 | 0.372 | 0.59 | 5.89 |
